Data as given in paper PMC6661955, “Indole bearing thiadiazole analogs: synthesis, β-glucuronidase inhibition and molecular docking study” (BMC Chemistry, 2019).

Molecular target: T1, β-glucuronidase (Bos taurus, UniProt A3KMY8)
T1 sequence (A3KMY8 24-652): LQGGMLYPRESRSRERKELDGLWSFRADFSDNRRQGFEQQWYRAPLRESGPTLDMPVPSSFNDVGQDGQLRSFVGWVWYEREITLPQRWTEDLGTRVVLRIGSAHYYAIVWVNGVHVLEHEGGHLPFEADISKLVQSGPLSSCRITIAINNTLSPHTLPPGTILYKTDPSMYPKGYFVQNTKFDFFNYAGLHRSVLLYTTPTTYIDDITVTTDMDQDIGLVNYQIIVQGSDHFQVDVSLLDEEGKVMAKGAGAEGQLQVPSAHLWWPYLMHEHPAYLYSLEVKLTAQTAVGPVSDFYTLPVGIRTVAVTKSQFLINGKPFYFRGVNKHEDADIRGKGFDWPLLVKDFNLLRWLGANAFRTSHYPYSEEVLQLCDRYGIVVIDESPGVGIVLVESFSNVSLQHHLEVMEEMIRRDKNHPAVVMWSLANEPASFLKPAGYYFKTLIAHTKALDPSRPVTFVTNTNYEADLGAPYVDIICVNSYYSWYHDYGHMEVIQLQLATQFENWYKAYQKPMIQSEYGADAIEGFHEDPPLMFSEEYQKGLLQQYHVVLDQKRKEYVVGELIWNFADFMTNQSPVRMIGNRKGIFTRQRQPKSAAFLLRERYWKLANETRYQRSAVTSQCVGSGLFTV
Assay: β-glucuronidase inhibition
Assay type: biochemical
Details: grouping in words

| SMILES | activity group according to inhibitory IC50 values |
| --- | --- |
| Oc1cccc(-c2nnc(-c3ccc4[nH]ccc4c3)s2)c1O [Compound 6, 3-(5-(1H-indol-5-yl)-1,3,4-thiadiazol-2-yl)benzene-1,2-diol] | highly active |
| Oc1ccc(-c2nnc(-c3ccc4[nH]ccc4c3)s2)cc1O [Compound 7, 4-(5-(1H-indol-5-yl)-1,3,4-thiadiazol-2-yl)benzene-1,2-diol] | highly active |
| Cc1ccc(-c2nnc(-c3ccc4[nH]ccc4c3)s2)cc1 [Compound 1, 2-(1H-indol-5-yl)-5-(p-tolyl)-1,3,4-thiadiazole] | low active |
| Oc1ccccc1-c1nnc(-c2ccc3[nH]ccc3c2)s1 [Compound 3, 2-(5-(1H-indol-5-yl)-1,3,4-thiadiazol-2-yl)phenol] | highly active |

Next, values leading:

| activity group according to inhibitory IC50 values | SMILES |
| --- | --- |
| low active | Cc1ccccc1-c1nnc(-c2ccc3[nH]ccc3c2)s1 [Compound 2, 2-(1H-indol-5-yl)-5-(o-tolyl)-1,3,4-thiadiazole] |
| moderate active | Oc1cccc(-c2nnc(-c3ccc4[nH]ccc4c3)s2)c1 [Compound 4, 3-(5-(indol-5-yl)-1,3,4-thiadiazol-2-yl)phenol] |
| moderate active | Fc1ccc(-c2nnc(-c3ccc4[nH]ccc4c3)s2)cc1 [Compound 20, 2-(4-fluorophenyl)-5-(1H-indol-5-yl)-1,3,4-thiadiazole] |
| moderate active | Oc1ccc(-c2nnc(-c3ccc4[nH]ccc4c3)s2)cc1 [Compound 9, 4-(5-(1H-indol-5-yl)-1,3,4-thiadiazol-2-yl)phenol] |
